pIC50: −log10 of the molar value.

The subject of one data set is Hepatitis B virus. The data set is described as follows: Antiviral activity against Hepatitis B virus infected in human HepG2(2.2.15) cells assessed as inhibition of viral DNA replication after 4 days by RT-PCR analysis. The data set is classed as functional, organism-based. Conditions: HepG2 2.2.15, 96 h.
Data set [1] is described as follows: Cytotoxicity against human HepG2(2.2.15) cells after 8 days by MTT assay. The data set is classed as cell-based.
Data set [2] can be described thus: Selectivity index, ratio of CC50 for human HepG2.2.15 cells to IC50 for Hepatitis B virus. The data set is classed as functional.

One may read the pIC50 as the negative decadic logarithm of the IC50, by convention in mol/L. As usually defined, the CC50 is the concentration at which the toxic effect on the cells reaches its halfway point. For the compound `CCCN(CCC)CCc1c[nH]c2ccccc12`, the pIC50 in the data set on Hepatitis B virus is less than 4.00. In data set [1], this compound showed a CC50 at 192 h greater than 100 µM.
For the compound `CC(C)CN(CCc1c[nH]c2ccccc12)CC(C)C`, in data set [2], the “Ratio CC50/IC50” value was greater than 8.2. In addition, in the data set on Hepatitis B virus, the negative-log IC50 (pIC50) was 4.91. The CC50 at 192 h in data set [1] is greater than 100 µM.
The like results for `CC(C)CCN(CCc1c[nH]c2ccccc12)CCC(C)C` were, in that order, 102, 6.40 and 40.6 µM.
The like results for `c1ccc2c(CCN(CC3CC3)CC3CC3)c[nH]c2c1` were, in that order, greater than 16.7, 5.22 and greater than 100 µM.
`c1ccc2c(CCN(CC3CCCCC3)CC3CCCCC3)c[nH]c2c1`: in the data set on Hepatitis B virus, the negative-log IC50 (pIC50) is less than 4.00. The compound also yielded a CC50 at 192 h in data set [1] greater than 33.3 µM.
Turning to `c1ccc(CN(CCc2c[nH]c3ccccc23)Cc2ccccc2)cc1`, the “Ratio CC50/IC50” value in data set [2] is reported as 0.95. Besides, the pIC50 with Hepatitis B virus was 4.89. The compound further had a CC50 at 192 h in data set [1] of 12.4 µM.
Take `c1ccc(CN(CCc2c[nH]c3ccccc23)Cc2ccccn2)nc1`: the pIC50 in the data set with Hepatitis B virus is less than 4.60. The compound further had a CC50 at 192 h in data set [1] of 5.8 µM.
On to `c1coc(CN(CCc2c[nH]c3ccccc23)Cc2ccco2)c1`, for which, in data set [2], the “Ratio CC50/IC50” value worked out at 7.8. The pIC50 with Hepatitis B virus was 5.46. Besides, the CC50 at 192 h in data set [1] came to 27.3 µM.
For `c1csc(CN(CCc2c[nH]c3ccccc23)Cc2cccs2)c1`, in data set [2], the “Ratio CC50/IC50” value is greater than 8.5. In the data set with Hepatitis B virus, the pIC50 is 5.41. In data set [1], the CC50 at 192 h is greater than 33.3 µM.
The like results for `COc1cc(OC)c(OC)cc1CN(CCc1c[nH]c2ccccc12)Cc1cc(OC)c(OC)cc1OC` were, in that order, 17.2, 5.92 and 21 µM.
For `O=[N+]([O-])c1cccc(CN(CCc2c[nH]c3ccccc23)Cc2cccc([N+](=O)[O-])c2)c1`, the pIC50 in the data set on Hepatitis B virus is less than 4.00. The same compound gave a CC50 at 192 h in data set [1] greater than 100 µM.
Turning to `C[N+](C)([O-])CCc1c[nH]c2ccccc12`, the “Ratio CC50/IC50” value in data set [2] is given as greater than 5.7. The negative logarithm of the IC50 (pIC50) in the data set on Hepatitis B virus is 4.75. Besides, the CC50 at 192 h in data set [1] was greater than 100 µM.
On to `CC[N+]([O-])(CC)CCc1c[nH]c2ccccc12`, for which, in the data set on Hepatitis B virus, the pIC50 is less than 4.00. The same compound showed a 50% cytotoxic concentration (CC50) at 192 h in data set [1] greater than 100 µM.
In the same order, the values of `CCC[N+]([O-])(CCC)CCc1c[nH]c2ccccc12` are less than 4.00 and greater than 100 µM.
In the same order, the values of `CC(C)C[N+]([O-])(CCc1c[nH]c2ccccc12)CC(C)C` are less than 4.00 and greater than 100 µM.
In data set [1], `CC(C)CC[N+]([O-])(CCc1c[nH]c2ccccc12)CCC(C)C` returned a CC50 at 192 h of 77.6 µM. That is a double-digit micromolar value.
For the compound `[O-][N+](CCc1c[nH]c2ccccc12)(CC1CC1)CC1CC1`, the pIC50 in the data set with Hepatitis B virus is less than 4.00. The same compound registered a half-maximal cytotoxic concentration (CC50) at 192 h in data set [1] greater than 100 µM.
The like results for `[O-][N+](CCc1c[nH]c2ccccc12)(CC1CCCCC1)CC1CCCCC1` were, in that order, less than 4.00 and 23.1 µM.
The like results for `[O-][N+](CCc1c[nH]c2ccccc12)(Cc1ccccc1)Cc1ccccc1` were, in that order, less than 4.00 and greater than 100 µM.
The like results for `[O-][N+](CCc1c[nH]c2ccccc12)(Cc1ccccn1)Cc1ccccn1` were, in that order, less than 4.00 and 56.5 µM.
With `[O-][N+](CCc1c[nH]c2ccccc12)(Cc1ccco1)Cc1ccco1`, the “Ratio CC50/IC50” value in data set [2] was greater than 13.3. Also, the pIC50 with Hepatitis B virus is 5.12. The compound also returned a CC50 at 192 h in data set [1] greater than 100 µM.
In the same order, the values of `[O-][N+](CCc1c[nH]c2ccccc12)(Cc1cccs1)Cc1cccs1` are greater than 10.6, 5.03 and greater than 100 µM.
The like results for `C[N+](C)([O-])CCc1c[nH]c2ccc(O)cc12` were, in that order, greater than 25, greater than 6.00 and greater than 25 µM.
`C[N+](C)([O-])CCc1c[nH]c2ccc(Br)cc12`: in data set [2], the “Ratio CC50/IC50” value was greater than 4.6. Moreover, the pIC50 in the data set on Hepatitis B virus was 5.27. This compound came in with a CC50 at 192 h in data set [1] greater than 25 µM.
In the same order, the values of `C[N+](C)([O-])CCc1c[nH]c2ccc(Cl)cc12` are greater than 3, 5.08 and greater than 25 µM.
In the case of `CC(C)CCNCCc1c[nH]c2ccccc12`, the negative-log IC50 (pIC50) in the data set with Hepatitis B virus was less than 4.60. Moreover, the CC50 at 192 h in data set [1] is greater than 25 µM.
In the same order, the values of `CC(C)CCN(C)CCc1c[nH]c2ccccc12` are less than 4.60 and greater than 25 µM.
`CC(C)CCN(CCc1c[nH]c2ccccc12)Cc1ccco1`: in data set [2], the “Ratio CC50/IC50” value was greater than 4.7. The negative-log IC50 (pIC50) in the data set with Hepatitis B virus is 5.28. Also, the CC50 at 192 h in data set [1] is greater than 25 µM.
For the compound `CCN(CCc1c[nH]c2ccccc12)CCC(C)C`, the pIC50 in the data set on Hepatitis B virus was less than 4.60. In data set [1], this compound returned a CC50 at 192 h greater than 25 µM.
With `CCCN(CCc1c[nH]c2ccccc12)CCC(C)C`, the “Ratio CC50/IC50” value in data set [2] is given as greater than 1.25. Moreover, in the data set with Hepatitis B virus, the pIC50 was 4.70. Further, in data set [1], the CC50 at 192 h is greater than 25 µM.
For `CC(C)CCN(CCc1c[nH]c2ccccc12)Cc1cccs1`, in data set [2], the “Ratio CC50/IC50” value is listed as greater than 2.5. Besides, the pIC50 in the data set with Hepatitis B virus was 5.00. The 50% cytotoxic concentration (CC50) at 192 h in data set [1] is greater than 25 µM.
`CC(C)CCN(CCc1c[nH]c2ccccc12)CC(C)C`: the “Ratio CC50/IC50” value in data set [2] was greater than 23. For the same compound, in the data set with Hepatitis B virus, the pIC50 was 5.96. This compound yielded a CC50 at 192 h in data set [1] greater than 25 µM.
With `CC(C)CCN(CCc1cn(S(=O)(=O)c2ccccc2)c2ccccc12)CCC(C)C`, the pIC50 in the data set with Hepatitis B virus is less than 4.60. In addition, half-maximal cytotoxicity in data set [1] (CC50 at 192 h) was put at 15 µM.
In the same order, the values of `CCN(CC)CCc1c[nH]c2ccccc12` [DIETHYLTRYPTAMINE] are less than 4.00 and greater than 100 µM.
Regarding `Nc1ccn([C@@H]2CS[C@H](CO)O2)c(=O)n1` [LAMIVUDINE], the “Ratio CC50/IC50” value in data set [2] is given as 3557. For the same compound, in the data set on Hepatitis B virus, the pIC50 is 6.48. Moreover, the CC50 at 192 h in data set [1] was found to be 1170 µM.
Take `CN(C)CCc1c[nH]c2ccccc12` [N,N-DIMETHYLTRYPTAMINE]: the pIC50 with Hepatitis B virus is less than 4.00. Also, the CC50 at 192 h in data set [1] was greater than 100 µM.

The record behind these values is ChEMBL document CHEMBL1777761, “Tryptamine derivatives as novel non-nucleosidic inhibitors against hepatitis B virus” (Bioorg Med Chem, 2011).
